According to PubChem BioAssay (NCI):
Where “and” joins values, the source holds several entries; their conditions need not be identical. Equal values may be shown once.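 Following 48 hours of exposure in 96-well plates, responses at five concentrations were used to interpolate endpoints linearly. GI50 = concentration required for 50% inhibition of growth. TGI: total growth inhibition.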

Experiments:
Experiment in all cases: growth of human tumour cells (NCI), 48 h
[1] = system: HOP-62 NSCLC
[2] = system: SF-268 CNS
[3] = system: NCI-H23 lung
[4] = system: HCT-116 colon
[5] = system: BT-549 breast
[6] = system: U251 CNS
[7] = system: DU-145 prostate
[8] = system: A498 renal
[9] = system: MDA-MB-231 breast
[10] = system: 786-0 renal

| Compound | TGI [1] [µM] | TGI [2] [µM] | TGI [3] [µM] | TGI [4] [µM] | TGI [5] [µM] | TGI [6] | TGI [7] [µM] | TGI [8] [µM] | TGI [9] [µM] | TGI [10] [µM] | GI50 [5] [µM] | GI50 [7] [µM] | GI50 [8] [µM] | GI50 [9] [µM] | GI50 [2] [µM] | GI50 [3] [µM] | GI50 [4] [µM] | GI50 [6] [µM] | GI50 [1] [µM] |
| --- | --- | --- | --- | --- | --- | --- | --- | --- | --- | --- | --- | --- | --- | --- | --- | --- | --- | --- | --- |
| NC(=O)/N=C/c1c(O)c2ccccc2oc1=O | > 100 | > 100 | > 100 | > 100 | – | – | – | – | – | – | – | – | – | – | – | – | – | – | – |
| C/C(=N\NC(N)=S)c1nc2ncccc2[nH]1 | > 100 | > 100 | – | > 100 | > 96.7 | > 100 µM | > 100 | > 100 | > 100 | > 100 | – | – | – | – | – | – | – | – | – |
| COC(=O)c1c(O)ccc2c1c1c(n2Cc2cccc(C)c2)C(=O)c2ccccc2C1 | 51.6 | > 75 | > 75 | 16.7 | > 75 | 66.1 µM | > 75 | > 75 | > 75 | – | – | – | – | – | – | – | – | – | – |
| COC(=O)C12Oc3ccc(-c4ccc5c(c4O)C(O)=C4C(=O)CC(C)C(O)C4(C(=O)OC)O5)c(O)c3C(O)=C1C(=O)CC(C)C2O (stereo not given) | 12.6 | 1.84 | – | – | 8.77 | 3.05 µM | > 66 | 1.81 | 6.8 | > 32.2 | – | – | – | – | – | – | – | – | – |
| COc1cc(O)c(Cc2ccccc2O)c(O)c1C(=O)CCc1ccccc1 | 9.89 | 33.5 | 12 | 13.7 | – | 14.5 µM | – | 14.4 | – | – | – | – | – | – | – | – | – | – | – |
| COc1ccc2c3/c(=C\c4ccc(N(C)C)cc4)c4ccccc4n3[n+](C)c2c1 | – | 3.03 | 0.722 | > 100 | 2.7 | > 100 µM | 1.81 | 7.37 | 0.385 | – | 0.129 | 0.236 | 0.371 | 0.0352 | 0.437 | 0.0639 | 0.0533 | – | – |
| O=C1C(=C([O-])c2ccccc2)C(=O)c2ccccc21.O=C1C(=C([O-])c2ccccc2)C(=O)c2ccccc21.[Ni+2] | – | – | > 100 | – | – | > 100 µM | – | – | – | – | – | – | – | – | – | 37.4 | – | 34.5 | – |
| Cn1c(=O)c2[nH]c(SC/C(=N/O)c3ccc(Br)cc3)nc2n(C)c1=O | 5.09 | – | 4.75 | > 100 | 7.36 | – | – | – | 4.38 | – | 2.55 | – | – | 2.14 | – | 2.08 | 3.19 | – | 2.3 |
| CC1OC(O[C@@H]2C=C3CC[C@@H]4[C@H](CC[C@]5(C)[C@@H](c6ccc(=O)oc6)CC[C@]45O)[C@@]3(C)CC2)C(O)C(OC2OC(CO)C(O)C(O)C2O)C1O (stereo not given in full) | 0.00151 | 0.00983 | 0.0236 | – | – | 0.0176 µM and 0.0352 µM | 0.0111 | 0.0825 | 0.0196 | 0.0117 | – | – | – | 0.000388 | – | – | – | 0.000247 | – |
| CC(=O)OCC1OC(N=[N+]=[N-])C(OC(C)=O)C(OC(C)=O)C1OC1OC(COC(C)=O)C(OC(C)=O)C(OC(C)=O)C1OC(C)=O (stereo not given) | – | > 100 | > 100 | – | – | > 100 µM | – | > 100 | – | > 100 | – | – | – | – | – | – | – | – | – |
| O=c1[nH]c(=O)n(C2CC(O)C(CO)O2)cc1Br (stereo not given) | > 100 | > 100 | > 100 | > 100 | > 100 | > 100 µM | > 100 | > 100 | > 100 | > 100 | – | – | – | – | – | – | – | – | – |
| Cc1cc(O)c2c(c1)C(C1c3cccc(O)c3C(=O)c3c(O)cc(C)cc31)c1cccc(O)c1C2=O (stereo not given) | 3 | 14 | 4.65 | 18.9 | 0.94 | 12.3 µM | 18.6 | 4.53 | 1.73 | 6.82 | – | – | – | – | – | – | – | – | – |
| C=C1CCOC2(C(O)C(C)(O)CO)NC(=O)C1(O)NC2=O (stereo not given) | > 100 | > 100 | > 100 | > 100 | > 100 | > 100 µM | > 100 | > 100 | > 100 | > 100 | – | – | – | – | – | – | – | – | – |
